According to ChEMBL document CHEMBL4043259, “From UTP to AR-C118925, the discovery of a potent non nucleotide antagonist of the P2Y2 receptor” (Bioorg Med Chem Lett, 2017):

test system: not listed separately; experiment: Volume of distribution at steady state in rat administered via iv; type: ADME; conditions: in vivo, read-out: Vdss

Vd | SMILES
4.34 L/kg | Cc1ccc2c(c1)C=Cc1cc(C)ccc1C2c1cn(Cc2ccc(C(=O)Nc3nnn[nH]3)o2)c(=O)[nH]c1=S

test system: not listed separately; experiment: Clearance in rat administered via iv; type: ADME; conditions: in vivo

clearance | SMILES
75 mL/min/kg | Cc1ccc2c(c1)C=Cc1cc(C)ccc1C2c1cn(Cc2ccc(C(=O)Nc3nnn[nH]3)o2)c(=O)[nH]c1=S

target: P2Y purinoceptor 2 (Homo sapiens, UniProt P41231); experiment: Antagonist activity at human P2Y2R expressed in human Jurkat cells assessed as inhibition of UTP-activated intracellular calcium mobilization by fluo-3AM dye based fluorescence assay; type: functional, cell-based; conditions: read-out: pA2 (converted)
Sequence (P41231 whole entry): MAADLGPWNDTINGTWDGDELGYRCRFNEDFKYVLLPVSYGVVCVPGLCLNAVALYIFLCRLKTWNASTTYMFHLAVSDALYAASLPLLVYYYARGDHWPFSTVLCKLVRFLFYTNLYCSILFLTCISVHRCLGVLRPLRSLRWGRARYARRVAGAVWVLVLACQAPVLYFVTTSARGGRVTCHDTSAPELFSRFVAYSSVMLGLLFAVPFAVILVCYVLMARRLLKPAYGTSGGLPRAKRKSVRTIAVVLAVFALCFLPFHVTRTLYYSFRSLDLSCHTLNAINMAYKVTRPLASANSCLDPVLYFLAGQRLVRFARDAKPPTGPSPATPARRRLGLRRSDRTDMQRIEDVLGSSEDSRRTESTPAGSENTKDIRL

SMILES | Kb
O=c1[nH]c(=S)c(C(c2ccccc2)c2ccccc2)cn1[C@@H]1O[C@H](COP(=O)(O)OP(=O)(O)C(Cl)(Cl)P(=O)(O)O)[C@@H](O)[C@H]1O | 1000 nM
COc1ccc(C(c2ccc(OC)cc2)c2cn([C@@H]3O[C@H](COP(=O)(O)OP(=O)(O)C(Cl)(Cl)P(=O)(O)O)[C@@H](O)[C@H]3O)c(=O)[nH]c2=S)cc1 | 79.4 nM
O=c1[nH]c(=S)c(C2c3ccccc3Oc3ccccc32)cn1[C@@H]1O[C@H](COP(=O)(O)OP(=O)(O)C(Cl)(Cl)P(=O)(O)O)[C@@H](O)[C@H]1O | 50.1 nM
O=c1[nH]c(=S)c(C2c3ccccc3C=Cc3ccccc32)cn1[C@@H]1O[C@H](COP(=O)(O)OP(=O)(O)C(Cl)(Cl)P(=O)(O)O)[C@@H](O)[C@H]1O | 3.16 nM
O=c1[nH]c(=S)c(C(c2ccc(Cl)c(Cl)c2)c2ccc(Cl)c(Cl)c2)cn1[C@@H]1O[C@H](COP(=O)(O)OP(=O)(O)C(Cl)(Cl)P(=O)(O)O)[C@@H](O)[C@H]1O | 20 nM
O=C(O)c1csc(Cn2cc(C3c4ccccc4C=Cc4ccccc43)c(=O)[nH]c2=O)n1 | 39800 nM
O=c1[nH]c(=S)c(C2c3ccccc3C=Cc3ccccc32)cn1[C@@H]1O[C@H](CO)[C@@H](O)[C@H]1O | 20000 nM
Cc1ccc(C(c2ccc(C)cc2)c2cn([C@@H]3O[C@H](COP(=O)(O)OP(=O)(O)C(Cl)(Cl)P(=O)(O)O)[C@@H](O)[C@H]3O)c(=O)[nH]c2=S)cc1 | 15.8 nM
O=c1[nH]c(=S)c(C2c3ccccc3CCc3ccccc32)cn1[C@@H]1O[C@H](COP(=O)(O)OP(=O)(O)C(Cl)(Cl)P(=O)(O)O)[C@@H](O)[C@H]1O | 10 nM
O=c1[nH]c(=S)c(C(c2ccc(Cl)cc2)c2ccc(Cl)cc2)cn1[C@@H]1O[C@H](COP(=O)(O)OP(=O)(O)C(Cl)(Cl)P(=O)(O)O)[C@@H](O)[C@H]1O | 12.6 nM
O=c1[nH]c(=S)c(C2c3ccccc3-c3ccccc32)cn1[C@@H]1O[C@H](COP(=O)(O)OP(=O)(O)C(Cl)(Cl)P(=O)(O)O)[C@@H](O)[C@H]1O | 63.1 nM

The next lines start with the values.

Kb | SMILES
1260 nM | O=C(O)c1ccc(Cn2cc(C3c4ccccc4C=Cc4ccccc43)c(=S)[nH]c2=O)o1
2000 nM | O=C(O)Cc1cccc(Cn2cc(C3c4ccccc4C=Cc4ccccc43)c(=S)[nH]c2=O)c1
31.6 nM | Cc1ccc2c(c1)C=Cc1cc(C)ccc1C2c1cn(Cc2ccc(C(=O)Nc3nc(CC(=O)O)cs3)o2)c(=O)[nH]c1=S
2510 nM | O=C(O)c1cc(Cn2cc(C3c4ccccc4C=Cc4ccccc43)c(=S)[nH]c2=O)cs1
200 nM | O=C(O)c1ccc(Cn2cc(C3c4ccc(Cl)cc4C=Cc4cc(Cl)ccc43)c(=S)[nH]c2=O)o1
63.1 nM | Cc1ccc2c(c1)C=Cc1cc(C)ccc1C2c1cn(Cc2ccc(C(=O)Nc3nc(CC(=O)N[C@@H](CC(=O)O)C(=O)O)cs3)o2)c(=O)[nH]c1=S
251 nM | Cc1ccc2c(c1)C=Cc1cc(C)ccc1C2c1cn(Cc2nc(C(=O)O)cs2)c(=O)[nH]c1=S
2510 nM | O=C(O)COc1cccc(Cn2cc(C3c4ccccc4C=Cc4ccccc43)c(=S)[nH]c2=O)c1
2000 nM | O=C(O)c1csc(Cn2cc(C3c4ccccc4C=Cc4ccccc43)c(=S)[nH]c2=O)n1
25.1 nM | Cc1ccc2c(c1)C=Cc1cc(C)ccc1C2c1cn(Cc2ccc(C(=O)N[C@@H](CC(=O)O)C(=O)O)o2)c(=O)[nH]c1=S
3980 nM | O=C(O)c1cccc(Cn2cc(C3c4ccccc4C=Cc4ccccc43)c(=S)[nH]c2=O)c1
1580 nM | O=C(O)c1coc(Cn2cc(C3c4ccccc4C=Cc4ccccc43)c(=S)[nH]c2=O)n1
6310 nM | O=C(O)c1cnc(Cn2cc(C3c4ccccc4C=Cc4ccccc43)c(=S)[nH]c2=O)s1
39.8 nM | Cc1ccc2c(c1)C=Cc1cc(C)ccc1C2c1cn(Cc2nc(C(=O)N[C@@H](CC(=O)O)C(=O)O)cs2)c(=O)[nH]c1=S
100 nM | Cc1ccc2c(c1)C=Cc1cc(C)ccc1C2c1cn(Cc2ccc(C(=O)O)o2)c(=O)[nH]c1=S
3980 nM | O=C(O)c1cccc(Cn2cc(C3c4ccccc4C=Cc4ccccc43)c(=S)[nH]c2=O)n1

test system: not listed separately; experiment: Bioavailability in rat; type: ADME, organism-based; conditions: in vivo

bioavailability | SMILES
0% | Cc1ccc2c(c1)C=Cc1cc(C)ccc1C2c1cn(Cc2ccc(C(=O)Nc3nnn[nH]3)o2)c(=O)[nH]c1=S

test system: not listed separately; experiment: Half life in rat administered via iv; type: ADME; conditions: in vivo

half-life | SMILES
2.12 h | Cc1ccc2c(c1)C=Cc1cc(C)ccc1C2c1cn(Cc2ccc(C(=O)Nc3nnn[nH]3)o2)c(=O)[nH]c1=S
